The target of assay [1] is T1, Delta-type opioid receptor (Rattus norvegicus, UniProt P33533). Description: Compound was evaluated for the binding affinity towards Opioid receptor delta 1 in rat brain homogenates using [3H]naltrindole as radioligand. Type of assay: tissue-based.
The target in assay [2] is T1, Delta-type opioid receptor. Description: Compound was evaluated for the binding affinity towards Opioid receptor delta 1 in rat brain homogenates using [3H]DIDI as radioligand. Type of assay: tissue-based.
For a further assay, the target named is Mu-type opioid receptor (Rattus norvegicus, UniProt P33535). Nature of the assay: Compound was evaluated for the binding affinity towards mu opioid receptor in rat brain homogenates using [3H]DAMGO as radioligand. The class given is tissue-based.
The species entered for assay [3] is Cavia porcellus. Description: Compound was evaluated for the percent inhibition of electrically evoked twitch height at 10 uM concentration in guinea pig ileum (GPI). Type of assay: functional.
Assay [4] concerns the target Kappa-type opioid receptor (Rattus norvegicus, UniProt P34975). Description: Compound was evaluated for the binding affinity towards Opioid receptor kappa 1 in rat brain homogenates using [3H]U-69593 as radioligand. Type of assay: tissue-based.
The target of assay [5] is Kappa-type opioid receptor (Mus musculus) (UniProt P33534).
Description: Tested for antagonist activity against Opioid receptor kappa 1 in mouse vas deferens preparation by using C1977 as antagonist
The species named for another assay is Mus musculus. Nature of the assay: Compound was evaluated for the percent inhibition of electrically evoked twitch height at 10 uM concentration in mouse vas deferens (MVD). Type of assay: functional.
The species named for assay [6] is Cavia porcellus. Description: Compound was evaluated for the percent inhibition of twitch height at 10 uM concentration in guinea pig ileum assay. Type of assay: functional.

This passage reports Ki, inhibition and Ke results from ChEMBL document CHEMBL1130557, “Synthesis and biological evaluation of 14-alkoxymorphinans. 14.1 14-ethoxy-5-methyl substituted indolomorphinans with opioid receptor selectivity” (Bioorg Med Chem Lett, 1997).

As a reminder, the Ki is a measure of affinity in units of concentration, obtained from inhibition or displacement. Read a low Ki as higher affinity. A word on the inhibition: it is how much of the control response was suppressed. A low value points to a weak effect.

Sequence of Mu-type opioid receptor (P33535 whole entry): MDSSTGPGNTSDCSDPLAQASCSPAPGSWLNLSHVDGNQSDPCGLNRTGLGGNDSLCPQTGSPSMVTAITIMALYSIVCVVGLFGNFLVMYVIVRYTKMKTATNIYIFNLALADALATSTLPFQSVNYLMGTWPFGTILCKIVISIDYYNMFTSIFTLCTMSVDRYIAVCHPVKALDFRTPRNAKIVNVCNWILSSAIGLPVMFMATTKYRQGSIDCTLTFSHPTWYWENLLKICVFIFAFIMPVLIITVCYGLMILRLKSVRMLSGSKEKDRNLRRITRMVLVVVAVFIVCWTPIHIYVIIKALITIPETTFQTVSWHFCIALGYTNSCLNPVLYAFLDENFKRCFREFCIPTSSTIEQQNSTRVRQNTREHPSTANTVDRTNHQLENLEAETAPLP
T1 sequence (P33533 whole entry): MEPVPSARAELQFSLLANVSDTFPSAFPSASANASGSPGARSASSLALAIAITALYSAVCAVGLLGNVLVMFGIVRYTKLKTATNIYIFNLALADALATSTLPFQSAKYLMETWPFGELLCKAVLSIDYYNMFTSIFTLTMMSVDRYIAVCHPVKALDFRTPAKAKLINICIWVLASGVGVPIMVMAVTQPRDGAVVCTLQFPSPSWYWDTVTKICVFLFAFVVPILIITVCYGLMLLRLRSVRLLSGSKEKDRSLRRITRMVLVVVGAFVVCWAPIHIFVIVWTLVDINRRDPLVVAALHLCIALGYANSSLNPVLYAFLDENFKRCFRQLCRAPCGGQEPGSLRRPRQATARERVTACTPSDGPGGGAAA
Sequence of Kappa-type opioid receptor (P34975 whole entry): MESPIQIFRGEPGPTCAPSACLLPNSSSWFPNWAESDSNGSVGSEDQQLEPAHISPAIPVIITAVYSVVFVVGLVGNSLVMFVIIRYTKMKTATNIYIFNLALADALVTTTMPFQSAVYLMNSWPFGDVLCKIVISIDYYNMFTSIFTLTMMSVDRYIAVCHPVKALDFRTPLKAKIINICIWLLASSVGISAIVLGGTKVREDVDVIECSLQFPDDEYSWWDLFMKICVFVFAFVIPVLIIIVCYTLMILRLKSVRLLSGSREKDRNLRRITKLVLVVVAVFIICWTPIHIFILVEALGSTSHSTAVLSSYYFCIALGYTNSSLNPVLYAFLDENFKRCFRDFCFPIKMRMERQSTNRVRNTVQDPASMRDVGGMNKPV
Sequence of Kappa-type opioid receptor (Mus musculus) (P33534 whole entry): as the sequence (P34975 whole entry) above, with E11D, A17S, P51S, V308A counted along it

For the molecule `Oc1ccc2c3c1O[C@H]1c4[nH]c5ccccc5c4C[C@@]4(O)[C@@H](C2)N(CC2CC2)CC[C@]314` [NALTRINDOLE], the Ki stood at 0.33 nM in assay [1] and 0.09 nM in assay [2].

As to `CCO[C@@]12Cc3c([nH]c4ccccc34)[C@]3(C)Oc4c(O)ccc5c4[C@@]31CCN(CC1CC1)C2C5`, the Ki came to 0.78 nM in assay [1], 38.7 nM on Mu-type opioid receptor, 59.2 nM in assay [4] and 14 nM in assay [2]. In addition, the figures for the inhibition at 10 µM in the assay filed under Cavia porcellus [3] and in the assay listed under Mus musculus were 32% and 23%, respectively. The same molecule showed a Ke in assay [5] of 529 nM.

Take `CCO[C@@]12Cc3c([nH]c4ccccc34)[C@]3(C)Oc4c(O)ccc5c4[C@@]31CCN(C)[C@@H]2C5`: 10 µM produced 21% inhibition in the assay filed under Cavia porcellus [6]. Also, the Ki in assay [1] came out at 5.75 nM; at Mu-type opioid receptor, 715 nM; in assay [4] it was 286 nM; in assay [2], 8.81 nM.

Take `C=CCN1CC[C@]23c4c5ccc(O)c4O[C@@]2(C)c2[nH]c4ccccc4c2C[C@@]3(OCC)[C@H]1C5`: the Ki stood at 10.8 nM in assay [1], 667 nM at Mu-type opioid receptor, 765 nM in assay [4] and 29.9 nM in assay [2].
